# Experimental data: the METLIN SMRT retention time set (Domingo-Almenara et al. 2019)
# Test: gradient 5% acetonitrile 3 min, to 50% in 2 min, to 85% in 15 min, held 3 min, 100 µL/min
# Details: column: Zorbax Extend-C18 2.1 x 50 mm; eluents: water / acetonitrile, 0.1% formic acid
# Method in brief: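 Values are retention times taken from adduct peaks that software picked and an analyst inspected. The pure standards were run as mixtures of ~100 molecules on HPLC linked to a quadrupole time-of-flight mass spectrometer, in positive and negative ionization mode. A Zorbax Extend-C18 column (2.1 × 50 mm, 1.8 μm) was used at 100 μL/min with water and acetonitrile, each including 0.1% formic acid.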
row,Structure (SMILES),RP-LC retention time
1,Cc1ccc(CN2C(=O)NC3(CCN(C(=O)COc4ccc(C)cc4)CC3)C2=O)cc1,876 s
2,CC(C)CCNC(=O)c1cn(C)nc1S(=O)(=O)N1CCC(C)CC1,996 s
3,Cc1ccc(CNC(=O)N2CCC3(CC2)NC(=O)c2ccc(F)cc2N3C)cc1,761 s
4,CN1CC[C@H](c2c(O)cc(O)c3c(=O)cc(-c4ccccc4Cl)oc23)[C@H](O)C1,689 s
5,Clc1cc(N2CCSCC2)ncn1,763 s
6,CCOC(=O)Cc1csc(NC(=O)Cc2csc(Nc3nc(C)cc(C)n3)n2)n1,769 s
7,CCOCCCNC(=O)CCC(=O)N1CC2CCCN2c2ccccc21 (stereo not given),729 s
8,COc1ccccc1NC(=O)C1CCN(S(=O)(=O)c2cc(C(=O)N3CCCC3)n(C)c2)CC1,758 s
9,Cc1cc2c(cc1S(=O)(=O)N1CCCC1)N(C(=O)C1CC1)CC2,876 s
10,CCOC(=O)c1ccc(Nc2ncccc2S(N)(=O)=O)cc1,841 s
11,O=C(CCc1conc1-c1ccc(F)cc1)NCc1ccc(F)cc1,886 s
12,CCNC(=O)N1CCC(c2noc(-c3ccncc3)n2)C1 (stereo not given),616 s
13,O=C(NCc1ccco1)c1ccc2c(c1)nnn2Cc1ccc(F)cc1,808 s
14,O=C(Nc1sc2c(c1C(c1ccccn1)N1CCN(c3ccccn3)CC1)CCCC2)c1ccco1 (stereo not given),775 s
15,Cc1nc(C(=O)OCc2cc(-c3cccs3)on2)cs1,785 s
16,COc1cn(CC(=O)NCC2CCCO2)c(CN2CCC(C)CC2)cc1=O (stereo not given),570 s
17,Cc1ccccc1NC(=O)CN1CCc2[nH]c3c(C)cc(F)cc3c(=O)c2C1,608 s
18,CN(C(=O)Cn1nc(Cc2ccncc2)c2ccccc2c1=O)c1cccc(Cl)c1,644 s
19,CSc1ccc(-c2nc3cnccn3c2NC2CCCCC2)cc1,1010 s
20,O=C(CCc1ccccc1)Nc1ccc2c(c1)N(C(=O)c1ccco1)CCC2,871 s
21,CCN1CCCC1CNC(=O)C1CCN(S(=O)(=O)c2ccc3c(c2)sc(=O)n3C)CC1 (stereo not given),794 s
22,CCc1ccccc1NC(=O)N1CCC2(CC1)NC(=O)c1cccc(Cl)c1N2,766 s
23,Cc1ccccc1-c1noc(CCc2nnc3ccc(N4CCN(c5ccccn5)CC4)nn23)n1,647 s

row,Structure (SMILES),RP-LC retention time
1,CCOC(=O)c1cc(S(=O)(=O)N2CCCC2C(=O)Nc2ccc(C)c(F)c2)cn1C (stereo not given),988 s
2,CN(C)c1ccc(-c2noc(C3CC(=O)N(c4ccc(F)cc4)C3)n2)cc1 (stereo not given),994 s
3,CCn1c(=O)n(Cc2ccccn2)c(=O)c2cnc(-c3ccc(OC)cc3)nc21,880 s
4,CCCOc1nn(CCC)cc1C(=O)N1CCCC1,700 s
5,O=C(c1cn(-c2cc(N3CCCCC3)ncn2)cn1)N1CCCC1,772 s
6,CCOc1ccccc1NC(=O)Nc1nnc(Cc2ccccc2)o1,845 s
7,CCCCNC(=O)c1cn(-c2ccc(NC(=O)CC)cn2)cn1,678 s
8,CN1C(=O)COc2ccc(-c3csc(NC(=O)COc4ccc(Cl)cc4)n3)cc21,1010 s
9,Cc1cccc2c1NC(=O)C2(O)CC(=O)c1ccccc1Cl (stereo not given),729 s
10,CCN(CC)c1ccc(/C=C2\SC(=O)NC2=O)cc1,876 s
11,O=C(Nc1ccc(N2CCN(C3CCCCC3)C2=O)nc1)c1ccccc1,630 s
12,O=C(Nc1nnc(C2CC(=O)N(c3ccc(F)cc3)C2)o1)c1ccc(Br)cc1 (stereo not given),783 s
13,c1ccc(-c2nc(-c3cnccn3)no2)c(OC2CNC2)c1,583 s
14,CCN(C(=O)C1CCCN(c2ncnc3c2nc2n3CCCCC2)C1)c1ccccc1 (stereo not given),838 s
15,COc1cccc(CNC(=O)CN2CCN(Cc3ccc(C)cc3)C(=O)C2=O)c1,715 s
16,O=C(NC1CCCCCCC1)C1CCN(C(=O)c2ncn3c2COC(c2ccc(Cl)cc2)C3)CC1 (stereo not given),936 s
17,CCc1nc2onc(C)c2c(=O)n1CC(=O)NCc1ccccc1F,792 s
18,Cc1cccc(-c2nc(Cc3noc(-c4ccncc4)n3)c(C)o2)c1,1010 s
19,CCCS(=O)(=O)N1CC[C@@H]2CN(Cc3ccccc3)[C@@H]2C1,607 s
20,CCNc1cc(C)nc(N2CCN(C(=O)C(C)(C)C)CC2)n1,632 s
21,Cc1cc(C(=O)Nc2ccccc2I)n(-c2ccccc2)n1,974 s
22,CCCC(=O)Nc1ccc2nc(N3CCN(c4cccc(OC)c4)CC3)cc(C(=O)O)c2c1,647 s
